Assay results from US20160176924A1, “MODIFIED PEPTIDES AS POTENT INHIBITORS OF THE PSD-95/NMDA RECEPTOR INTERACTION” (priority 2008, published 2016).

Assays:
[1] = Human blood plasma stability assay; type: in vitro ADME
Experimental: In this assay, the half-life (T1/2) of a compound in blood plasma is measured in vitro, whereby its susceptibility to degradation by proteases, peptidases and general plasma contents is quantified.
Compounds of interest were dissolved in human blood plasma (270 μl; 3H Biomedical, Sweden, cat no 1300-1-P50) to a concentration of 0.25 mM (30 μL of 2.5 mM) and incubated at 37° C. Aliquots (30 μl) were removed at various time intervals (0, 5, 10, 20, 40, 80, 160, 320, 960, 1280, 2550, 4560 and 7240 min) and quenched with 60 μL trichloroacetic acid (aq., 5%). The aliquots were vortexed, and incubated for at least 15 min, at 4° C. prior to centrifugation at 18,000 g for 2 min and the supernatant was analyzed by RP-HPLC to quantify the remaining compound (absorbance at 218 nm).

PDZ1-2 of PSD-95 = target: T1, PDZ1-2 of PSD-95 (Homo sapiens, UniProt P78352, I195W); test: Stopped-flow fluorimetry (fluorescence titration assay); type: binding
T1 construct: PDZ1-2 (residues 61-249) tandem; made in house; host or cells: E. coli BL21-DE3 pLysS
Experimental: The HIS-PDZ2 and HIS-PDZ1-2 expression constructs of PSD-95 were genetically manipulated to encode a tryptophan, (in position 51 of SEQ ID NO: 4 and position 145 in SEQ ID NO: 8, respectively) instead of isoleucine. Binding between PDZ2 and PDZ1-2 and peptide ligand 74 was then monitored and quantified, by measuring the fluorescence increase from this tryptophan upon ligand recognition. (excitation λ at 280 nm, emission λ>320 nm). Stopped-flow measurements were performed at 10° C. or 25° C. on an SX-20MV stopped-flow spectrometer (Applied Photophysics, Leatherhead, UK). The peptide, in varying amounts, was rapidly mixed with a constant amount of PDZ and the change in fluorescence was measured over time. The fluorescence versus time plots was fitted to a single or double exponential equation, from which one or two observed rate constants were obtained. Observed rate constants were then plotted against the concentration of the varied species and microscopic rate constants determined by fitting the data to the equation for a bimolecular association (Eq. 1)
kobs=((kon^2(n−[A]0)^2+koff^2+2konkoff(n+[A]0))^0.5 (Eq. 1) […]
The equilibrium dissociation constant Kd of the PDZ-peptide complex was calculated by the experimental determined kon and koff.

PDZ1-2 tandem of PSD-95 = target: T2, PDZ1-2 tandem of PSD-95 (Homo sapiens, UniProt P78352); test: FP heterologous competition binding assay; conditions: mean ± SEM
T2 construct: PDZ1-2 (residues 61-249) tandem; made in house; host or cells: E. coli BL21-DE3 pLysS
Source text: (§1) Determined IC50 values may be converted to Ki values.^5 Suitable fluorophores include either 5-FAM or Cy5, which may be coupled to a tripeptide (KSG or CSG) linker attached to the N-terminus of the undecapeptide, to give 5-FAM-NR2B, Cy5-NR2B, 5-FAM-CRIPT and Cy5-CRIPT. The 5-FAM fluorophore may be attached to the undecapeptides by coupling with HATU. The Cy5 fluorophore may be conjugated to the undecapeptides by coupling Cy5-maleimide to the cysteine side chain of the tripeptide sequence CSG attached to the N-terminus of the peptide, as detailed in the Methodology section.
(§2) To measure the affinities between non-fluorescent peptides and PDZ domains, heterologous competition bindings assay were performed. This was done by adding increasing concentrations of peptide to a fixed concentration of Cy5-NR2B, 5-FAM-NR2B, Cy5-CRIPT or 5-FAM-CRIPT (50 nM) and PDZ (20 μM for PDZ1, 3 μM for PDZ2 and 1-2 and 5 μM for PDZ3) in the same TBS buffer and conditions as described above. FP values were then fitted to the general equation: Y=Bottom+(Top−Bottom)/[1[…](10̂^X-logIC50)], where X is the logarithmic value of peptide concentration. Hereby the IC50 value was obtained, which is used to calculate the theoretical competitive inhibition constant, Ki.^5
(§3) A convenient and reliable way to examine interactions between peptide analogues and PDZ domains is by using a fluorescence polarization (FP) assay. The three PDZ domains, PDZ1-3, of PSD-95 were expressed individually as set out above, while PDZ1-2 was also expressed as a tandem construct. […] IC50 values were then converted to Ki values.^5

PDZ2 of PSD-95 = target: T3, PDZ2 of PSD-95 (Homo sapiens, UniProt P78352); test: FP heterologous competition binding assay; conditions: FP competition; mean ± SEM; NA = no activity/affinity
T3 construct: PDZ2 (residues 155-249); made in house; host or cells: E. coli BL21-DE3 pLysS
Source text: as §1, §2, §3

PDZ1 of PSD-95 = target: T4, PDZ1 of PSD-95 (Homo sapiens, UniProt P78352); test: FP heterologous competition binding assay; conditions: FP competition; mean ± SEM; NA = no activity/affinity
T4 construct: PSD-95 PDZ1 (residues 61-151); made in house; host or cells: E. coli BL21-DE3 pLysS
Source text: as §1, §2, §3

[2] = test system: cultured cortical neurons; test: Neuronal NMDA excitotoxicity assay (LDH release); type: cell-based, rat; conditions: 500 nM
Source text: When cultured cortical neurons are exposed to high concentrations of NMDA, an excitoxic cascade is initiated, which leads to cellular damage and ultimately neuronal cell death. Consequently, the cell membranes are destroyed, and cytoplasmic enzymes are released into the cell surroundings. The extent of this neuronal cell death can be quantified by measuring the release of cytoplasmic lactate dehydrogenase (LDH) enzyme into the cell medium. The compounds of interest and control compound (3) are investigated with respect to their abilities to attenuate NMDA-mediated toxicity. Compounds that are active in this assay are both membrane permeable, and can prevent ex vivo excitotoxicity, which are important properties for therapeutics towards excitotoxicity mediated diseases.
Cortical neurons were surgically removed from rats (e.g. E21) and then cultured for 7-9 days in vitro in Neurobasal A medium with B-27 supplement (each supplied by Invitrogen), further supplemented with 1 mM glutamine, 50 units/ml penicillin, and 50 μg/ml streptomycin. The following steps were then performed:
1. Samples of the cultured cortical neurons were removed from the Neurobasal-A based culture medium, at various time points prior to exposure to compound, and placed into “transfection medium” ([…]; as defined by Bading et al (1993) Science 260, 181-186) comprising: 10% modified Minimum Essential Medium (supplied by Invitrogen; product no: 21090022; containing Earles salt, but no L-glutamine), 90% Salt-Glucose-Glycine (SGG) medium: (114 mM NaCl, 0.219% NaHCO3, 5.292 mM KCL, 1 mM MgCl2, 2 mM CaCl2, 10 mM HEPES, 1 mM Glycine, 30 mM glucose, 0.5 mM sodium pyruvate, 0.1% Phenol Red), insulin-transferrin-selenite supplement (supplied by Sigma: 7.5 μg insulin/ml, 7.5 μg transferring/ml and 7.5 ng sodium selenite/ml); with a final osmolarity of 325 mosm/l. All subsequent steps were performed in this TM medium. 2. Samples of neurons are exposed to an NMDAR/PSD-95 inhibitor of the invention (compounds 40, 52-90) at a final concentration of between 0.05-50 μM for a period of between 0.5 to 1.5 hours. […] 3. Each sample of neurons was washed at least one time in TM medium to remove the NMDAR/PSD-95 inhibitor, and placed in TM medium. 4. After various periods of time, the samples of neurons were exposed to NMDA at a concentration of between 10-100 μM for a period of 0.5 to 1.5 hours, preferably 1 hour, after which the samples were again placed in TM medium for 24 hours. 5. LDH in the cell medium was quantified using commercial available kits (e.g. Promega Biotech AB, cat no G1780).

CC[C@H](C)[C@H](NC(=O)CCOCCOCCOCCOCCOCCOCCOCCOCCOCCOCCOCCOCCOCCC(=O)N[C@H](C(=O)N[C@@H](CCC(=O)O)C(=O)N[C@@H](CO)C(=O)N[C@@H](CC(=O)O)C(=O)N[C@H](C(=O)O)C(C)C)[C@@H](C)CC)C(=O)N[C@@H](CCC(=O)O)C(=O)N[C@@H](CO)C(=O)N[C@@H](CC(=O)O)C(=O)N[C@H](C(=O)O)C(C)C [(IESDV)2PEG12 (74), (IESDV)2PEG12]
degradation in human blood plasma, in words [1]: no significant degradation could be detected over a time period of 6 days | half-life at […] ([1]; human, plasma, Blood plasma half life (T1/2)): > 133 h | Ki (PDZ1-2 of PSD-95): ~100 nM | Ki (PDZ1-2 tandem of PSD-95): ~100 nM | Ki (PDZ2 of PSD-95): 3100 ± 130 nM | Ki (PDZ1 of PSD-95): 22000 ± 1400 nM | effect on NMDA-mediated excitotoxicity, in words [2]: inhibit neuronal excitotoxicity, as efficiently as the clinical candidate Tat-N2B (3)
